# Source: paper PMC9564300, “Cytotoxic Mechanism of Momilactones A and B against Acute Promyelocytic Leukemia and Multiple Myeloma Cell Lines” (Cancers, 2022)
# “And” between values parts separate entries of the source, which are not always exact repeats. Equal entries are not always repeated.
# Key:
# [1] = test system: acute promyelocytic leukemia HL-60 cell line; experiment: Cell viability (MTT) assay on HL-60; format: cell-based; settings: Homo sapiens; for IC50: HL-60, 48 h
# Procedure: (§1) In this assay, culture media was prepared by adding fetal bovine serum (10%), L-glutamine (5 mM), penicillin (100 IU/mL), and streptomycin (100 µg/mL) to IMDM (Sigma-Aldrich, St. Louis, MO, USA). The cells (5 × 10^3 cells/well) were seeded into a 96-well plate filled with 100 µL of culture media and placed in a CO2 incubator at 37 °C. After 24 h, the cells were treated with MA, MB, and MAB with different concentrations (0.5, 1, 5, and 10 µM) for 48 h. Subsequently, 10 µL of the MTT solution (5 mg/mL, Sigma-Aldrich) was pipetted into each well. The cells were continuously incubated for 4 h. Finally, 100 µL of cell lysis buffer (10% SDS in 0.01 M HCl) was applied to dissolve the colored formazan crystals. Culture media instead of momilactones was used as the negative control. Meanwhile the drugs consisting of doxorubicin, all-trans retinoic acid (ATRA), the mixture of ATRA and arsenic trioxide (ATRA/ATO) (1:1, w/w), and bortezomib were tested as the standard inhibitors. The absorbance at 595 nm was scanned to determine the cell growth rate using a spectrophotometer (SpectraMAX M5, Molecular Devices, Sunnyvale, CA, USA). All tests were performed with three replications. The cytotoxic activity (% inhibition) of momilactones and/or inhibitors on the tested cell lines was as follows:Inhibition (%) = (ANC − AS)/ANC × 100(1) where ANC: absorbance of reaction with negative control, and AS: absorbance of reaction with momilactone and/or inhibitor.
# (§2) Dose-responding curves and IC50 values (the required concentration for inhibiting 50% of cell viability) of momilactones and the standard inhibitors for cytotoxicity against tested cell lines were established. A lower IC50 indicates a stronger cytotoxic activity.
# [2] = test system: non-cancerous MeT-5A cell line; experiment: Cell viability (MTT) assay on MeT-5A; format: cell-based; settings: Homo sapiens, 48 h
# Procedure: as §1, §2
# [3] = test system: multiple myeloma U266 cell line; experiment: Cell viability (MTT) assay on U266; format: cell-based; settings: Homo sapiens; for IC50: U-266, U266, 48 h
# Procedure: as §1, §2
# [4] = test system: non-cancerous MeT-5A cell line; experiment: Cell apoptosis (annexin V) assay on MeT-5A; format: cell-based, human; settings: 5 µM
# Procedure: (§3) The procedure was conducted in triplicate following Lam et al.. In brief, the cells (5 × 10^5 cells/well) were seeded into a 6-well plate filled with 1.5 mL of culture media and cultured in a CO2 incubator for 24 h with the same condition as mentioned in the MTT assay. The cells were then treated with momilactones at a concentration of 5 µM for 24 and 48 h. The non-treated cells were used as a control. Harvested cells were washed twice with cold phosphate-buffered saline (PBS). After that, the control and treated cells were incubated with annexin V-conjugated fluorescein isothiocyanate (FITC) (Biolegend, San Diego, CA, USA) and propidium iodide (PI) for 15 min at 25 °C. The obtained cells were dissolved in 450 µL of PBS. The solution was filtered by a nylon membrane to prevent cell clumping and kept on ice until analysis. The intensities of annexin V-FITC and PI and the percentages of apoptotic cells were instantly determined by a flow cytometer (BD, Franklin Lakes, NJ, USA).
# [5] = test system: acute promyelocytic leukemia HL-60 cell line; experiment: Cell apoptosis (annexin V) assay on HL-60; format: cell-based, human; settings: HL-60, 5 µM
# Procedure: as §3
# [6] = test system: multiple myeloma U266 cell line; experiment: Cell apoptosis (annexin V) assay on U266; format: cell-based, human; settings: U266, 5 µM
# Procedure: as §3
# [7] = test system: non-cancerous MeT-5A cell line; experiment: Cell cycle assay (PI, flow cytometry) on MeT-5A; format: cell-based, human; settings: 5 µM, 48 h
# Procedure: (§4) The cells (5 × 10^5 cells/well) were cultured and treated in triplicate following the same methods as the apoptosis assay. The FxCycle PI/RNase staining solution was applied according to the manufacturer’s instructions (Calbiochem, Darmstadt, Germany). The cell cycle distribution at each phase of G1, S, and G2 was determined based on the cell’s DNA content. The percentages of cells in different phases of the cell cycle were quantified by a flow cytometer (BD, Franklin Lakes, NJ, USA). In brief, the collected cells were washed with ice-cold PBS. Subsequently, ice-cold PBS in pure ethanol was added to disperse the cells. The obtained solution was stored at 4 °C for 24 h for fixing. For analysis, the cells were incubated with 10 mg/mL of RNase A (Sigma-Aldrich) for 5 min on ice. The following step was conducted by adding 1 mg/mL of PI (in PBS). After incubating for 10 min at room temperature, the cells were dissolved in 450 µL of PBS. The solution was then filtered using a nylon membrane to remove cell clumping before analysis. Subsequently, the flow cytometric measurement was immediately performed.
# [8] = test system: acute promyelocytic leukemia HL-60 cell line; experiment: Cell cycle assay (PI, flow cytometry) on HL-60; format: cell-based, human; settings: HL-60, 5 µM
# Procedure: as §4
# [9] = test system: phosphorylated p-38/total p-38; experiment: Western blotting in HL-60: phosphorylated p-38/total p-38; format: cell-based, human; settings: HL-60, 5 µM, control 0.48
# Procedure: (§5) The cells (5 × 10^5 cells/well) were cultured and treated in triplicate following the same methods as the apoptosis and cell cycle assays. The cell lysates were conducted by rinsing cells with PBS, followed by adding 2× loading buffer two times (4% SDS, 10% 2-mercaptoethanol, 20% glycerol, 0.004% bromophenol blue, 0.125 M Tris-HCl, pH 6.8). The extracted protein ([…]) was subjected to sodium dodecyl sulfate (SDS)-polyacrylamide gels, applying 10% acrylamide, and subsequently transferred to a polyvinylidene fluoride membrane (Takara Bio, Shiga, Japan) by electroblotting. The membrane was blocked using 3% skim milk in PBS-0.05% Tween 20 (PBS-T) at 25 °C for 1 h. The incubation with each antibody (2 µg/mL) against anti-rabbit total p-38/MAPK, phosphorylated p-38/MAPK, BCL-2, procaspase-3, cleaved caspase-3, CDK1/cdc2, cyclin B1, and GAPDH (BioLegend, San Diego, CA, USA) in blocking buffer was conducted overnight at 4 °C. The following step was performed by washing the membrane with PBS-T in triplicate. The collected membrane was incubated with a secondary antibody of horseradish peroxidase-labeled goat anti-rabbit IgG (20 ng/mL) (IBL, Gunma, Japan) at 37 °C for 1 h. […] The relative expression (RE) was calculated by normalizing the intensity of targeted proteins to the intensity of the housekeeping protein GAPDH.
# BCL-2 [10] = experiment: Western blotting in HL-60: BCL-2; format: cell-based, human; settings: HL-60, 5 µM
# Procedure: as §5
# [11] = test system: cleaved caspase-3/procaspase-3; experiment: Western blotting in HL-60: cleaved caspase-3/procaspase-3; format: cell-based, human; settings: HL-60, 5 µM, control 0.17
# Procedure: as §5
# cyclin B1 = experiment: Western blotting in HL-60: cyclin B1; format: cell-based, human; settings: HL-60, 5 µM, control 1.17
# Procedure: as §5
# CDK1 = experiment: Western blotting in HL-60: CDK1; format: cell-based, human; settings: HL-60, 5 µM, control 1.55
# Procedure: as §5
# [12] = test system: phosphorylated p-38/total p-38; experiment: Western blotting in U266: phosphorylated p-38/total p-38; format: cell-based, human; settings: U266, 5 µM, control 1.00
# Procedure: as §5
# BCL-2 [13] = experiment: Western blotting in U266: BCL-2; format: cell-based, human; settings: U266, 5 µM
# Procedure: as §5
# [14] = test system: cleaved caspase-3/procaspase-3; experiment: Western blotting in U266: cleaved caspase-3/procaspase-3; format: cell-based, human; settings: U266, 5 µM
# Procedure: as §5
smiles,measurement,setting,value
"CC1=C(/C=C/C(C)=C/C=C/C(C)=C/C(=O)O)C(C)(C)CCC1 [ATRA, all-trans retinoic acid, reference compound]",IC50,[1],3.99 ± 0.16 µM
"COc1cccc2c1C(=O)c1c(O)c3c(c(O)c1C2=O)C[C@@](O)(C(=O)CO)C[C@@H]3O[C@H]1C[C@H](N)[C@H](O)[C@H](C)O1 [Doxorubicin, doxorubicin, reference compound]",inhibition at 10 µM,[2],49.2 ± 6.17%
same,IC50,[1],5.22 ± 0.15 µM
same,IC50,[3],0.24 ± 0.01 µM
"C=C[C@]1(C)CC[C@@H]2C(=C[C@H]3OC(=O)[C@@]4(C)C(=O)CC[C@@]2(C)[C@@H]34)C1 [MA, momilactone A]",inhibition at 10 µM,[2],28.5 ± 2.93%
same,inhibition at 10 µM,"[1]; HL-60, 10 µM, 48 h, read-out: HL-60 inhibition percentage at 10 µM",30.2%
same,inhibition at 10 µM,"[3]; U-266, U266, 10 µM, 48 h, read-out: U266 inhibition percentage at 10 µM",41%
"C=C[C@]1(C)CC[C@@H]2C(=C[C@H]3OC(=O)[C@]4(C)[C@H]3[C@]23CC[C@]4(O)OC3)C1 [MB, momilactone B]",inhibition at 10 µM,[2],38 ± 2.29%
same,IC50,[1],4.49 ± 0.34 µM
same,IC50,[3],5.09 ± 0.58 µM
same,% apoptosis (FITC+),[4]; 24 h,2.9% and 2.87%
same,FITC- cells,[4]; 24 h,97.1%
same,% apoptosis (FITC+),[4]; 48 h,10.3%
same,FITC- cells,[4]; 48 h,89.7%
same,increase in cell apoptosis compared to the non-treated control,[4]; 48 h,2.67 fold
same,% apoptosis (FITC+),[5]; 24 h,1.1%
same,FITC- cells,[5]; 24 h,98.9%
same,increase in apoptotic process over the control,[5]; 24 h,1.30 fold
same,% apoptosis (FITC+),[5]; 48 h,40.5%
same,FITC- cells,[5]; 48 h,59.5%
same,% apoptosis (FITC+),[6]; 24 h,16.9%
same,FITC- cells,[6]; 24 h,83.1%
same,% apoptosis (FITC+),[6]; 48 h,18.0%
same,FITC- cells,[6]; 48 h,82.0%
same,increase of cell percentage of sub-G1 compared to the untreated control,[7],2.59 times
same,cells in G2 phase,[8]; 24 h,30.1%
same,cells in G2 phase,[8]; 48 h,29.2%
same,relative expression (RE) of phosphorylated p-38/total p-38,[9]; 24 h,1.15
same,relative expression (RE) of phosphorylated p-38/total p-38,[9]; 48 h,0.96
same,"BCL-2 RE value, fold lower than the control",BCL-2 [10]; 24 h,1.92 fold
same,"BCL-2 RE value, fold lower than the control",BCL-2 [10]; 48 h,2.32 fold
same,RE of cleaved caspase-3/procaspase-3,[11]; 24 h,0.56
same,RE of cleaved caspase-3/procaspase-3,[11]; 48 h,0.77
same,RE of cyclin B1,cyclin B1; 24 h,0.80
same,RE of cyclin B1,cyclin B1; 48 h,0.69
same,RE of CDK1,CDK1; 24 h,1.10
same,RE of CDK1,CDK1; 48 h,0.75
same,RE of phosphorylated p-38/total p-38,[12]; 24 h,2.47
same,RE of phosphorylated p-38/total p-38,[12]; 48 h,2.35
same,inhibition of BCL-2 expression compared to the control,BCL-2 [13]; 24 h,2.37 times
same,decrease of BCL-2 expression over the control,BCL-2 [13]; 48 h,4.41 fold
same,increase of cleaved caspase-3/procaspase-3 expression over the control,[14]; 24 h,5.33 times
same,increase of cleaved caspase-3/procaspase-3 expression over the control,[14]; 48 h,8.83 times
"CC(C)C[C@H](NC(=O)[C@H](Cc1ccccc1)NC(=O)c1cnccn1)B(O)O [bortezomib, reference compound]",IC50,[3],0.008 µM
